Columns and labels:
[1] = tested on: rectal temperature of rats injected with yeast suspension; assay: Antipyretic evaluation in yeast-injected rats; assay type: in vivo
Protocol: Groups of 10 male rats are weighed, color-coded, rectal temperatures taken (24 hours±15 minutes prior to dose administration) and recorded. Food is removed but water remains available ad libitum. Each rat is injected subcutaneously into the central dorsal region with 5 ml of a 15% yeast suspension. Twenty-three hours (±15 minutes) after yeast injection, body weights and rectal temperatures are taken and recorded. Twenty-four hours (±15 minutes) after yeast injection, the vehicle and test articles are administered orally. Temperatures are taken and recorded one hour (±5 minutes) following test article or vehicle administration. The mean rectal temperatures for the test article and vehicle control groups are calculated at 23 and 25 hours (±15 minutes) and subjected to an ANOVA followed by a Tukey HSD Multiple Comparison Test (p≦0.05)—Systat, version 9.0.

[2] = tested on: acetylcholine-induced abdominal constriction in mice; assay: Mouse Abdominal Irritant Test (MAIT); assay type: in vivo; details: 300 mg/kg oral, male CD1 mice, % Inhibition=100×(Number of Nonresponders)/(Number of Animals in Group), read-out: Effect @ 300 mg/kg (Antinociceptive Effect in Mouse Abdominal Irritant Test)
Protocol: Male CD1 mice (weighing from 18-24 g) are used to determine the antinociceptive effects associated with the compositions of the invention. The mice are all dosed orally with the compounds specified, dissolved in distilled water or suspended in 0.5% MethocelTM (hydroxypropyl methylcellulose) in water. The dosing volume is 10 mL/kg.
The procedure used in detecting and comparing the analgesic activity of different classes of analgesic drugs for which there is a good correlation with human efficacy is the prevention of acetylcholine-induced abdominal constriction in mice (H. Collier et al., Br. J. Pharmacol., 32, 295 (1968)).
Mice, intubated with various doses of the compound or vehicle such as distilled water, or distilled water 0.5% Methocel™ (hydroxypropyl methylcellulose) in water, are injected intraperitoneally with a challenge dose of acetylcholine bromide. The acetylcholine is completely dissolved in distilled water at a concentration of […] and injected at the rate of 0.20 mL/20 g. For scoring purposes, an “abdominal constriction” is defined as a contraction of the abdominal musculature accompanied by arching of the back and extension of the limbs. The mice are observed for 10 minutes for the presence or absence of the abdominal constriction response beginning immediately after receiving the acetylcholine dose, administered at a certain time after the oral administration of the test drug or vehicle. Each mouse is used only once.
The percent of inhibition of this response is calculated as follows: % Inhibition=100×(Number of Nonresponders)/(Number of Animals in Group)

`O=C(Nc1ccc(O)cc1)c1ccccn1` [Pyridine-2-carboxylic acid (4-hydroxy-phenyl)-amide] was tested, and the “decrease in body temperature relative to the vehicle-treated group” value ([1]; 600 mg/kg oral, ANOVA, Tukey HSD) was “statistically significant (p≦1.05) decrease in body temperature”, the “Antipyresis deg C. @ 600 mpk” value ([1]; 600 mpk oral, one hour after administration, 24 h after yeast injection) was −2.17 deg C and the responders at 300 mg/kg [2] was 60%.

`O=C(Nc1ccc(O)cc1)[C@H]1CCCN1` [(R)-Pyrrolidine-2-carboxylic acid (4-hydroxy-phenyl)-amide] was tested, and the responders at 300 mg/kg [2] was 20%.

Compound `Cc1cc(C(=O)Nc2ccc(O)cc2)n[nH]1` [5-Methyl-1H-pyrazole-3-carboxylic acid (4-hydroxy-phenyl)-amide] has a responders at 300 mg/kg [2] of 73.3%.

For `O=C(Nc1ccc(O)cc1)c1n[nH]c2ccccc12` [1H-Indazole-3-carboxylic acid (4-hydroxy-phenyl)-amide], the responders at 300 mg/kg [2] was 20%.

`O=C(CS)Nc1ccc(O)cc1` [N-(4-Hydroxy-phenyl)-2-mercapto-acetamide] gave a responders at 300 mg/kg [2] of 40%.

`O=C(Nc1ccc(O)cc1)[C@@H]1CCCN1` [(S)-Pyrrolidine-2-carboxylic acid (4-hydroxy-phenyl)-amide] showed a responders at 300 mg/kg [2] of 40%.

In the case of `O=C(Nc1ccc(O)cc1)c1ccc[nH]1` [1H-Pyrrole-2-carboxylic acid (4-hydroxy-phenyl)-amide], the responders at 300 mg/kg [2] is reported as 86.7%.

Compound `CSCC(=O)Nc1ccc(O)cc1` [N-(4-Hydroxy-phenyl)-2-methylsulfanyl-acetamide] has a responders at 300 mg/kg [2] of 45%.

For `CS(=O)(=O)CC(=O)Nc1ccc(O)cc1` [N-(4-Hydroxy-phenyl)-2-methanesulfonyl-acetamide], the responders at 300 mg/kg [2] was 40%.

— patent publication US9018241B2, “Hetero-substituted acetanilide derivatives as analgesic agents” (Janssen Pharmaceutica N.V., priority 2003, dated 2015)
